The values below come from ChEMBL document CHEMBL4219125, “Small molecule modulators of PCSK9 - A literature and patent overview” (Bioorg Med Chem Lett, 2018).

Square brackets hold non-standard residues; d marks the D form. Peptide text beside a SMILES is read from it. hArg = N=C(N)NCCCC[C@H](N)C(=O)O

One series deals with Huh-7. In words: Inhibition of PCSK9 expression in human HuH7 cells after overnight incubation by ELISA. It is filed as functional, cell-based. For orientation: An ELISA detects its analyte on a solid surface through an enzyme-linked reagent.
Series [1] addresses T1, Proprotein convertase subtilisin/kexin type 9 (Homo sapiens, UniProt Q8NBP7). In words: Inhibition of PCSK9 in human HepG2 cells assessed as increase in uptake of fluorescent Dil-LDL at 0.37 uM relative to control. Type of series: cell-based.
Series [2] concerns the target T1, Proprotein convertase subtilisin/kexin type 9. In words: Inhibition of PCSK9 in human HepG2 cells assessed as increase in uptake of fluorescent Dil-LDL at 1.5 uM relative to control. Type of series: cell-based.
Another series has as its system Mus musculus. The experiment in a line: Reduction in plasma total cholesterol level in C57BL/6 mouse at 4 mg/kg, sc administered once daily for 2 weeks with high fat diet by enzymatic method relative to untreated control. Also noted: scale not given: the % may be the effect or the level left. Type of series: functional.
Series [3] addresses T1, Proprotein convertase subtilisin/kexin type 9. In words: Inhibition of PCSK9 (unknown origin) at 1.25 uM.
Series [4] shares this target. The experiment in a line: Inhibition of PCSK9 (unknown origin) expressed in human HepG2 cells assessed as increase in LDL uptake at 100 uM. Type of series: cell-based. Further details: scale not given: the % may be the effect or the level left.
Series [5] has the same target. The experiment in a line: Inhibition of recombinant PCSK9 (unknown origin) expressed in human HepG2 cells assessed as increase in LDL uptake at 1.25 uM after 16 hrs by fluorescence assay. Also noted: scale not given: the % may be the effect or the level left. It is filed as cell-based.
Series [6] has the same target. The experiment in a line: Inhibition of recombinant human C-terminal His8-tagged PCSK9 expressed in Chinese hamster ovary cells by TR-FRET assay. It is filed as cell-based. Background: Time-resolved FRET reads energy transfer from a long-lived donor to a nearby acceptor.
Series [7] has the same target. The experiment in a line: Inhibition of recombinant PCSK9 (unknown origin) expressed in human HepG2 cells assessed as increase in LDLR expression levels relative to control. It is filed as cell-based. Also noted: scale not given: the % may be the effect or the level left.
Series [8] has the same target. The experiment in a line: Inhibition of recombinant PCSK9 (unknown origin) expressed in human HepG2 cells assessed as increase in LDL uptake at 10 uM after 16 hrs by fluorescence assay. It is filed as cell-based. Further details: scale not given: the % may be the effect or the level left.
Series [9] has the same target. In words: Inhibition of recombinant PCSK9 (unknown origin) expressed in human HepG2 cells assessed as increase in LDL uptake at 0.31 uM after 16 hrs by fluorescence assay. It is filed as cell-based. Also noted: scale not given: the % may be the effect or the level left.
For series [10] the target is unchanged. The experiment in a line: Activation of PCSK9 (unknown origin) expressed in human HepG2 cells assessed as decrease in LDL uptake at 25 uM. It is filed as cell-based. To be noted: hepg2, 25 µM. Also noted: scale not given: the % may be the effect or the level left.
A further series concerns HepG2. The experiment in a line: Inhibition of PCSK9 production in human HepG2 cells after 24 hrs by ELISA. It is filed as functional, cell-based. To be noted: HepG2, 24 h.
The subject of series [11] is Hamster. The experiment in a line: In vivo inhibition of PCSK9 in dietary hyperlipidemia hamster model assessed as reduction in blood LDL-c level at 0.01 mg/kg, po administered daily for 7 days. Type of series: functional. To be noted: Cricetinae, 168 h.
Series [12] deals with Hamster. In words: In vivo inhibition of PCSK9 in dietary hyperlipidemia hamster model assessed as reduction in blood LDL-c level at 0.04 mg/kg, po administered daily for 7 days. Type of series: functional. The conditions noted are these: Cricetinae, 168 h.
Series [13] deals with T1, Proprotein convertase subtilisin/kexin type 9. In words: Inhibition of PCSK9 (unknown origin) expressed in human HepG2 cells assessed as increase in LDL uptake at 0.5 uM. It is filed as cell-based. Also noted: scale not given: the % may be the effect or the level left.
The next series relates to HeLa. The experiment in a line: Inhibition of PCSK9 expression in human HeLa cells after overnight incubation by ELISA. It is filed as functional, cell-based.
In series [14] the target is T1, Proprotein convertase subtilisin/kexin type 9. In words: Inhibition of binding of full-length recombinant human PCSK9 (M1 to Q692 residues) expressed in HEK293 cells to full-length LDLR (A1 to A699 residues) by SPR analysis. (SPR reads the build-up and loss of mass on a sensor chip optically.)
For series [15] the target is unchanged. In words: Binding affinity to recombinant human C-terminal His8-tagged PCSK9 expressed in Chinese hamster ovary cells by biolayer interferometry.
The subject of series [16] is Rattus norvegicus. The experiment in a line: Reduction of circulating PCSK9 level in rat plasma at 50 mg/kg, po administered daily for 14 days. It is filed as functional. To be noted: 336 h.
For series [17], the system named is Rattus norvegicus. The experiment in a line: In vivo inhibition of PCSK9 in rat plasma assessed as decrease in LDL-c level at 50 mg/kg, po administered daily for 14 days. It is filed as functional. The conditions noted are these: 336 h.
Series [18] relates to Rattus norvegicus. The experiment in a line: In vivo inhibition of PCSK9 in rat plasma assessed as decrease in total plasma cholesterol level at 50 mg/kg, po administered daily for 14 days. The conditions noted are these: 336 h. It is filed as functional.
The target in series [19] is T1, Proprotein convertase subtilisin/kexin type 9. The experiment in a line: Inhibition of PCSK9 in human HepG2 cells assessed as increase in LDL receptor levels at 200 uM after 18 to 24 hrs by Western blot analysis relative to control. It is filed as cell-based.
The nature of series [20]: Ratio of drug level in liver to plasma in monkey at 30 mg/kg, po. It is filed as ADME, organism-based, Macaca mulatta. The conditions noted are these: rhesus monkey, liver and plasma.
The target of series [21] is T1, Proprotein convertase subtilisin/kexin type 9. In words: Inhibition of PCSK9 in human HepG2 cells assessed as increase in LDLR expression levels at 1.6 uM relative to control. It is filed as cell-based.
For series [22] the target is unchanged. The experiment in a line: Inhibition of PCSK9 in human HuH7 cells assessed as increase in cell surface LDLR expression level at 100 uM by FACS analysis relative to control. It is filed as cell-based. Also noted: scale not given: the % may be the effect or the level left.
Series [23] has the same target. The experiment in a line: Inhibition of PCSK9 in human HuH7 cells assessed as increase in LDL uptake by FACS analysis. Type of series: cell-based. Further details: scale not given: the % may be the effect or the level left.

As usually defined, the IC50 is the midpoint of a concentration-inhibition curve. In the case of `COc1ccc(CCC(=O)N(c2nccc3ccccc23)[C@@H]2CCCNC2)cc1`, in the series with Huh-7, the IC50 stood at 2200 nM. For `CCN(CC)C(=O)c1ccc(NC(=O)CSc2nnc(-c3cccs3)n2C2CC2)cc1`, the fold change (FC) in [1] stood at 3; in series [2], 5. In the case of `CC(C)c1c(C(=O)Nc2ccccc2)c(-c2ccccc2)c(-c2ccc(F)cc2)n1CC[C@@H](O)C[C@@H](O)CC(=O)O` [ATORVASTATIN], the Activity in the series with Mus musculus was 27%. As usually defined, the inhibition is the share of the control response that was lost under treatment. As to `O=S(=O)(Nc1cccc2c1CCCC2)c1ccc(C2CCNCC2)cc1`, the inhibition in series [3] was over 50%. For the compound `CC(=O)N[C@@H](CO)C(=O)N[C@@H](COP(=O)(O)O)C(=O)N1CCC(c2ccc(C(F)(F)F)cc2)CC1`, the Activity in [4] is 105%. For `Cc1cc2c(cc1-c1ccccc1F)C(=O)NCC2`, in series [5], the Activity turned out to be 33%. Consider `CC[C@H](C)[C@H](NC(=O)[C@H](CCCCNC(=N)N)NC(=O)[C@@H](NC(=O)[C@H](CC(C)C)NC(=O)[C@H](CC(N)=O)NC(=O)[C@H](Cc1c[nH]c2ccccc12)NC(=O)CNC(=O)[C@@H]1CCCN1C(=O)[C@H](Cc1ccccc1)NC(=O)[C@H](CO)NC(=O)[C@H](CCC(=O)O)NC(=O)[C@@H](N)CCSC)C(C)C)C(=O)NCC(=O)N[C@@H](CC(C)C)C(=O)N[C@@H](CC(C)C)C(=O)N[C@@H](CCCNC(=N)N)C(=O)O` (H-MESFPGWNLV[hArg]IGLLR-OH), for which, in [6], the IC50 was 8300 nM. Take `Cc1cc2c(cc1-c1ccccc1F)CNCC2`: the Activity was 10% in series [7], over 100% in series [8] and 50% in series [9]. For the compound `O=C(N[C@H](CNc1nn[nH]n1)Cc1c[nH]c2ccccc12)[C@H](Cc1ccc(O)cc1)NC(=O)C12CC3CC(CC(C3)C1)C2`, the Activity in series [10] worked out at 50%. The inhibition in vivo is the share of the control response that was lost under treatment. In the case of `FC(F)(F)c1ccc(-c2nc3ccc(C(F)(F)F)c(Cl)c3o2)cc1`, in the series with HepG2, the midpoint of inhibition, the IC50, lay at 0.036 nM. In addition, in the series with Hamster [11], the inhibition in vivo at 0.01 mg/kg worked out at 46%. In addition, the inhibition in vivo at 0.04 mg/kg with Hamster [12] was found to be 57%.

Regarding `c1ccc2c(c1)NC1CNCCC21` (centres undefined), the Activity in series [13] was 60%. `FC(F)(F)c1ccc(-c2nc3c(ccc4cc[nH]c43)o2)cc1` had an IC50 in the series on HepG2 of 29.7 nM. The compound `Cn1ncc(-c2ccc(C(=O)N(c3ncccc3Cl)[C@@H]3CCCNC3)cc2F)c1-c1nnn[nH]1` gave an IC50 in the series with HeLa of 3700 nM. For the compound `O=S(=O)(Nc1cccc2c1CCCC2)c1ccc(N2CCNCC2)cc1`, the inhibition in series [3] was determined as 66%. For the compound `Cn1cncc1-c1ncc(-c2ncc(-c3ncc(-c4ccccc4)n3C)n2C)n1C`, the IC50 in [14] came out at 11200 nM. For orientation: Kd means the equilibrium constant for the complex coming apart. Consider `CC(=O)N[C@H](C(=O)N[C@H](C(=O)N[C@@H](Cc1ccccc1)C(=O)N[C@H](C(=O)N[C@@H](CO)C(=O)N[C@@H](Cc1c[nH]c2ccccc12)C(=O)N[C@@H](CCC(=O)O)C(=O)N[C@@H](CCC(=O)O)C(=O)N[C@@H](Cc1ccc(O)cc1)C(=O)N[C@@H](CC(C)C)C(=O)N[C@@H](CC(=O)O)C(=O)N[C@@H](Cc1c[nH]c2ccccc12)C(=O)N[C@H](C(N)=O)C(C)C)[C@@H](C)O)C(C)C)[C@@H](C)O`, for which the Kd in series [15] worked out at 700 nM.

Take `O=C(c1ccc(-n2nnc3cccnc32)cc1)N(c1ncccc1Cl)[C@@H]1CCCNC1`: the inhibition in vivo at 50 mg/kg was 50% in the series on Rattus norvegicus [16], 58% in the series on Rattus norvegicus [17] and 30% in the series on Rattus norvegicus [18]. In the series on HeLa, this compound returned an IC50 of 500 nM. Turning to `Cc1ccc(C(=O)Nc2ccc(S(=O)(=O)O)c3cc(S(=O)(=O)O)cc(S(=O)(=O)O)c23)cc1NC(=O)c1cccc(NC(=O)Nc2cccc(C(=O)Nc3cc(C(=O)Nc4ccc(S(=O)(=O)O)c5cc(S(=O)(=O)O)cc(S(=O)(=O)O)c45)ccc3C)c2)c1`, in [19], the fold change (FC) came to 15. In general, Kp refers to the ratio of the level in a tissue or fluid to that in plasma or blood. In the case of `CCOC(=O)O[C@@H](C)n1nnnc1-c1c(-c2ccc(C(=O)N(c3ncccc3Cl)[C@@H]3CCCNC3)cc2F)cnn1C` [PF-06815345], the Kp in series [20] was 28.

With `Cc1cc(C(=O)C2=C(O)C(=O)N(CCCN3CCOCC3)C2c2ccncc2)ccc1OCc1ccccc1` (centres undefined), the Activity with Mus musculus is listed as 32%. The fold change (FC) amounted to 8 in [21], 6 in series [1] and 10 in series [2]. `CC(=O)Nc1ccc2nc(-c3ccc(C(F)(F)F)cc3)oc2c1C(F)(F)F` had an IC50 in the series on HepG2 of 2.1 nM. As for H-VTVRFW-OH, the results for the Activity in series [22] and in series [23] were 100% and 95%, respectively.
